Assay results as given in patent US9107964B2, “Radioactive fluorine-labeled compound” (NIHON MEDI-PHYSICS CO., LTD., priority 2011, dated 2015).

How the values were obtained:
[1] = test system: hypoxic region of EMT6 tumor (pimonidazole-positive area); assay: Correlation between autoradiographic signal intensity (PSL value) and pimonidazole-positive area (Example 13); format: in vivo, mouse (Balb/c nu/nu); details: tumor tissue sections after PET imaging
Procedure: In order to evaluate whether or not the compound related to the present invention can quantitatively visualize a hypoxic region of a tumor, the following experiment was carried out using compounds 1 to 3 and [^18F]FMISO.
Using a microscope system (model: BZ-9000, Keyence Corporation) a high magnification image of a pimonidazole-positive site was acquired using the entire image of a pathology image obtained by immunohistochemical staining in the Example 12 and a 10× objective lens. The high magnification image was formed with respect to a randomly selected image region. At the same time the image acquisition site was recorded as a navigation image by use of the navigation function of the microscope system. The acquired high magnification image was subjected to image processing, and a pimonidazole-positive area present in the high magnification image was determined.
The autoradiographic image and the stained image of each labeled compound used were those acquired in the Example 12. The resolution of the navigation image was made to match the resolution of the autoradiographic image, and the geometrical positions of two images were aligned using image analysis software.
In the autoradiographic image, an ROI was set for the site that coincided with the high magnification image acquisition site, and the PSL value (Photo-Stimulated Luminescence value) of the ROI was determined. Furthermore, an ROI was set for a site of the same image that contained no sample, and the PSL value thereof was defined as the background. The PSL value of the background was subtracted from the PSL value of the high magnification image acquisition site to obtain the net PSL value. The hypoxic marker pimonidazole-positive area was plotted on the abscissa and the PSL value in the autoradiographic image on the ordinate, and the correlation factor was determined. This series of operations was carried out for each of the labeled compounds.

[2] = test system: EMT6 tumor-bearing model mice; assay: Biodistribution in tumor and organs of tumor-bearing mouse (Example 14); format: in vivo, mouse (Balb/c nu/nu); details: mean
Procedure: The biodistribution of compounds 1 to 3 and [^18F]FMISO in a tumor and each of the organs of a tumor-bearing mouse was measured.
Tumor-bearing model mice used in this experiment were the same as those prepared in Example 10, and 3 or 4 cases that had attained a tumor volume of 200 to 400 mm^3 were selected from each group. The tumor-bearing model mouse was placed under isoflurane anesthesia, pimonidazole that is a hypoxic marker, was administered via a tail vein, and at 10 minutes thereafter, the respective labeled compound was administered. The tumor-bearing model mouse was sacrificed at 60 minutes and 120 minutes after administration. All of the tumor-bearing model mice were sacrificed by blood-letting from the abdominal aorta or by cardiocentesis, and dissection was carried out immediately thereafter. Other than the tumor, the blood, heart, lung, stomach, liver, gallbladder, kidney, small intestine and large intestine, muscle, and urine were sampled, and the other tissues were defined as the remaining whole body. After the weight of each tissue sampled was measured, the amount of radioactivity of the tissue was measured using a gamma counter, and the biodistribution of each of the labeled compounds was compared by converting it into % ID/g (% injection dose/g organ) of each tissue.
In order to examine a hypoxic state within the tumor, immunohistochemical staining of the sample tumor was carried out so as to ascertain whether or not the interior of the tumor was hypoxic. The sampled tumor was fixed using a 20% formalin buffer, and a paraffin block was prepared using an automatic paraffin-embedding apparatus (model: VIP-5-Jr-J0, Sakura Finetek). A slice (thickness: 3 μm) was prepared by means of a microtome (model: Tissue-Tek Feather Trustome, Sakura Finetek). Immunohistochemical staining was carried out by the same method as in Example 12.

[3] = test system: mouse-derived breast cancer cell line (EMT6) tumor-bearing model mice; assay: Measurement of SUV within tumor and calculation of tumor/normal tissue ratio (Example 11); details: 60 minutes after administration
Procedure: The tumor-bearing model mouse thus prepared was placed under isoflurane anesthesia, and about 20 MBq of these sample solutions was administered via a tail vein. static imaging was carried out using a PET system for animals (model: eXplore Vista, manufactured by GE) at 60 minutes after administration. […] Data thus collected were reconstituted by the OSEM method to thus form an image, and a coronal tomographic image and an axial tomographic image were formed using image analysis software.
The maximum value for SUV within the tumor was measured using the axial tomographic images acquired in the Example 10. For all slice planes of an axial tomographic image where the tumor was visualized, a region of interest (hereinafter, called an ROI) was set for the entire tumor and measured. The axial tomographic image was formed from 61 slice planes, and the SUV that was the highest among the measured slice planes was defined as a maximum value for SUV 60 minutes after administration (SUV maximum value in tumor). […] The average value for signal intensity within the ROI was determined, and the average value for values measured for the slice planes was defined as the average value for SUV in normal tissue. The tumor/normal tissue ratio was calculated using the following equation (1) and used as a […] indicator with respect to contrast between the tumor and normal tissue.

[4] = test system: hypoxic region of EMT6 tumor (pimonidazole-positive site); assay: Localization of accumulation within tumor by autoradiography versus pimonidazole immunohistochemical staining; format: in vivo, mouse (Balb/c nu/nu); details: autoradiography and immunohistochemical staining of the same tumor section
Procedure: In order to evaluate whether or not the compound related to the present invention could visualize a hypoxic region of a tumor, the following experiment was carried out using compounds 1 to 3 and [^18F]FMISO.
Localization of accumulation of each of the labeled compounds within a tumor was confirmed by autoradiography. After PET imaging of a tumor-bearing model mouse prepared by the method of […] was completed, it was sacrificed by blood-letting by cardiocentesis, immediately thereafter the tumor was sampled, and tissue sections (thickness: 10 μm) were prepared using a cryostat (model: CM3050, manufactured by Leica). […] After exposing an imaging plate to this tumor tissue section for 8 to 10 hours, an image was captured using a bioimaging analyzer (model: BAS-2500, manufactured by FUJIFILM). The image thus captured was subjected to image analysis using image analysis software.
Separately, as a method for confirming a hypoxic region within a tumor, the same section after decay of radioactivity was subjected to immunohistochemical staining using pimonidazole that is a hypoxic marker, by the following procedure. […]

[5] = 60 minutes after administration
[6] = 120 minutes after administration

`O=[N+]([O-])c1nccn1CC(O)C[18F]` (centres unmarked) [[^18F]FMISO, [^18F]fluoromisonidazole, reference compound] was tested, and the “Correlation coefficient (pimonidazole-positive area vs PSL value in autoradiographic image)” value [1] was 0.55, the Blood [2, 5] was 4.45 % ID/g and the Gall bladder [2, 5] was 12.92 % ID/g. It also gave a Heart [2, 5] of 5.12 % ID/g, a Kidney [2, 5] of 8.52 % ID/g and a Large intestine [2, 5] of 13.76 % ID/g. The Liver [2, 5] was 5.84 % ID/g, the Lung [2, 5] was 4.41 % ID/g and the Muscle [2, 5] was 3.80 % ID/g. For the same molecule, the Small intestine [2, 5] was 5.76 % ID/g, the Stomach [2, 5] was 4.17 % ID/g and the “T/B (tumor/blood ratio)” value [2, 5] was 1.06. The “T/M (tumor/muscle ratio)” value [2, 5] was 1.24, the Tumor [2, 5] was 4.71 % ID/g and the Urine [2, 5] was 34.98 % ID. For the same molecule, the Blood [2, 6] was 2.26 % ID/g, the Gall bladder [2, 6] was 43.43 % ID/g and the Heart [2, 6] was 3.33 % ID/g. It also gave a Kidney [2, 6] of 3.89 % ID/g, a Large intestine [2, 6] of 21.16 % ID/g and a Liver [2, 6] of 3.85 % ID/g. The Lung [2, 6] was 2.69 % ID/g, the Muscle [2, 6] was 2.29 % ID/g and the Small intestine [2, 6] was 4.63 % ID/g. For the same molecule, the Stomach [2, 6] was 1.85 % ID/g, the “T/B (tumor/blood ratio)” value [2, 6] was 1.91 and the “T/M (tumor/muscle ratio)” value [2, 6] was 1.88. For the same molecule, the Tumor [2, 6] was 4.28 % ID/g, the Urine [2, 6] was 41.45 % ID and the “SUV maximum value (in tumor)” value ([3]; about 20 MBq via tail vein, axial PET image, ROI entire tumor) was 0.98. The Tumor/normal tissue ratio ([3]; SUV maximum in tumor versus average SUV of left body side (lung and muscle)) was 2.03 and the “Coincidence of accumulation site with localization of pimonidazole (hypoxic marker)” value [4] was “did not visually coincide”.
